Experimental findings from PubChem BioAssay AID1259407 (Chemical Carcinogenesis Research Information System (CCRIS), 2018) are described below.

The source made the active and inactive calls. No rule for the calls is given here.

For the data set, the system named is CCRIS mutagenicity, Ames/micronucleus/aberration tests. Nature of the data set: CCRIS mutagenicity studies.
Setting [1] is: Test System: AMES SALMONELLA TYPHIMURIUM, Strain/Indicator: TA98, Metabolic Activation: NONE, Method: STANDARD PLATE.
Setting [2] is: Test System: AMES SALMONELLA TYPHIMURIUM, Strain/Indicator: TA100, Metabolic Activation: NONE, Method: STANDARD PLATE.
[3] abbreviates: Test System: AMES SALMONELLA TYPHIMURIUM, Strain/Indicator: TA98, Metabolic Activation: NONE, Method: PREINCUBATION
Where [4] appears, read: Test System: AMES SALMONELLA TYPHIMURIUM, Strain/Indicator: TA98, Metabolic Activation: RAT, LIVER, S-9, AROCLOR 1254, Method: STANDARD PLATE.
Setting [5] is: Test System: AMES SALMONELLA TYPHIMURIUM, Strain/Indicator: TA100, Metabolic Activation: RAT, LIVER, S-9, AROCLOR 1254, Method: STANDARD PLATE.
[6] abbreviates: Test System: AMES SALMONELLA TYPHIMURIUM, Strain/Indicator: TA1535, Metabolic Activation: NONE, Method: STANDARD PLATE.
[7] abbreviates: Test System: AMES SALMONELLA TYPHIMURIUM, Strain/Indicator: TA1535, Metabolic Activation: RAT, LIVER, S-9, AROCLOR 1254, Method: STANDARD PLATE.
Where [8] appears, read: Test System: AMES SALMONELLA TYPHIMURIUM, Strain/Indicator: TA1537, Metabolic Activation: NONE, Method: STANDARD PLATE.
[9] abbreviates: Test System: AMES SALMONELLA TYPHIMURIUM, Strain/Indicator: TA1538, Metabolic Activation: NONE, Method: STANDARD PLATE.

As to `CC1Cc2cccc3c2N1C(C)C3.CC1Cc2cccc3c2N1C(C)C3.[Cl-].[Cl-].[Cl-].[Cl-].[Pt+2].[Pt+2]` (stereo unspecified), the mutagenic call is “inactive; negative” (Test System: AMES SALMONELLA TYPHIMURIUM, Strain/Indicator: TA92, Metabolic Activation: NONE, Method: STANDARD PLATE); “inactive; negative” under setting [1]; “inactive; negative” under setting [2]; “inactive; negative” (Test System: AMES SALMONELLA TYPHIMURIUM, Strain/Indicator: TA2410, Metabolic Activation: NONE, Method: STANDARD PLATE); “inactive; negative” (Test System: E. COLI, Strain/Indicator: TM6, Metabolic Activation: NONE, Method: STANDARD PLATE); “inactive; negative” (Test System: E. COLI, Strain/Indicator: TM9, Metabolic Activation: NONE, Method: STANDARD PLATE).

`COc1ccc2nc3occc3c(OC)c2c1`: the mutagenic call was “active; positive” (Test System: AMES SALMONELLA TYPHIMURIUM, Strain/Indicator: TA98, Metabolic Activation: RAT, LIVER, S-9, PHENOBARBITAL, Method: STANDARD PLATE) and “active; positive” (Test System: AMES SALMONELLA TYPHIMURIUM, Strain/Indicator: TA100, Metabolic Activation: RAT, LIVER, S-9, PHENOBARBITAL, Method: STANDARD PLATE).

For the compound `[Li+]`, the mutagenic call was “inactive; negative” (Test System: AMES SALMONELLA TYPHIMURIUM, Strain/Indicator: TA98, Metabolic Activation: HAMSTER, LIVER, S-9, AROCLOR 1254, Method: PREINCUBATION); “inactive; negative” under setting [3]; “inactive; negative” (Test System: AMES SALMONELLA TYPHIMURIUM, Strain/Indicator: TA98, Metabolic Activation: RAT, LIVER, S-9, AROCLOR 1254, Method: PREINCUBATION); “inactive; negative” (Test System: AMES SALMONELLA TYPHIMURIUM, Strain/Indicator: TA100, Metabolic Activation: HAMSTER, LIVER, S-9, AROCLOR 1254, Method: PREINCUBATION); “inactive; negative” (Test System: AMES SALMONELLA TYPHIMURIUM, Strain/Indicator: TA100, Metabolic Activation: NONE, Method: PREINCUBATION); “inactive; negative” (Test System: AMES SALMONELLA TYPHIMURIUM, Strain/Indicator: TA100, Metabolic Activation: RAT, LIVER, S-9, AROCLOR 1254, Method: PREINCUBATION). Besides, the mutagenic call reads like this: (Test System: AMES SALMONELLA TYPHIMURIUM, Strain/Indicator: TA1535, Metabolic Activation: HAMSTER, LIVER, S-9, AROCLOR 1254, Method: PREINCUBATION) “inactive; negative”; (Test System: AMES SALMONELLA TYPHIMURIUM, Strain/Indicator: TA1535, Metabolic Activation: NONE, Method: PREINCUBATION) “inactive; negative”; (Test System: AMES SALMONELLA TYPHIMURIUM, Strain/Indicator: TA1535, Metabolic Activation: RAT, LIVER, S-9, AROCLOR 1254, Method: PREINCUBATION) “inactive; negative”; (Test System: AMES SALMONELLA TYPHIMURIUM, Strain/Indicator: TA1537, Metabolic Activation: HAMSTER, LIVER, S-9, AROCLOR 1254, Method: PREINCUBATION) “inactive; negative”; (Test System: AMES SALMONELLA TYPHIMURIUM, Strain/Indicator: TA1537, Metabolic Activation: NONE, Method: PREINCUBATION) “inactive; negative”; (Test System: AMES SALMONELLA TYPHIMURIUM, Strain/Indicator: TA1537, Metabolic Activation: RAT, LIVER, S-9, AROCLOR 1254, Method: PREINCUBATION) “inactive; negative”. Also, the mutagenic call (Test System: E. COLI, Strain/Indicator: WP2 UVRA, Metabolic Activation: NONE, Method: SPOT TEST) was “inactive; negative”.

As for `CC(=O)Nc1ccc(C)c(N)c1`, the mutagenic call under setting [3] is “inactive; negative” and the mutagenic call (Test System: AMES SALMONELLA TYPHIMURIUM, Strain/Indicator: TA98, Metabolic Activation: RAT, LIVER, S-9, PHENOBARBITAL AND 5,6-BENZOFLAVONE, Method: PREINCUBATION) is “active; positive”.

Regarding `CO/N=C(\C(=O)N[C@@H]1C(=O)N2C(C(=O)O)=C(CSC(=O)c3ccco3)CS[C@H]12)c1csc(N)n1`, the mutagenic call reads like this: under setting [1], “inactive; negative”; under setting [4], “inactive; negative”; under setting [2], “inactive; negative”; under setting [5], “inactive; negative”; under setting [6], “inactive; negative”; under setting [7], “inactive; negative”. Besides, the mutagenic call runs as follows: under setting [8], “inactive; negative”; (Test System: AMES SALMONELLA TYPHIMURIUM, Strain/Indicator: TA1537, Metabolic Activation: RAT, LIVER, S-9, AROCLOR 1254, Method: STANDARD PLATE) “inactive; negative”; under setting [9], “inactive; negative”; (Test System: AMES SALMONELLA TYPHIMURIUM, Strain/Indicator: TA1538, Metabolic Activation: RAT, LIVER, S-9, AROCLOR 1254, Method: STANDARD PLATE) “inactive; negative”; (Test System: CHINESE HAMSTER V-79, Strain/Indicator: V-79 (HPRT)/6-THIOGUANINE, Metabolic Activation: NONE) “inactive; negative”; (Test System: CHINESE HAMSTER V-79, Strain/Indicator: V-79 (HPRT)/6-THIOGUANINE, Metabolic Activation: RAT, LIVER, S-9, AROCLOR 1254) “inactive; negative”. The mutagenic call (Test System: UDS RAT HEPATOCYTES, Strain/Indicator: THY INCORP, Metabolic Activation: NONE, Method: IN VIVO-IN VITRO) is “inactive; negative”.

As for `O=CN(O)c1ccc(Cl)cc1`, the mutagenic call is “inactive; negative” under setting [1], “active; positive” under setting [4], “inactive; negative” under setting [2] and “active; positive” under setting [5].

For `c1ccc(COc2cccc3cccnc23)cc1`, the mutagenic call (Test System: AMES SALMONELLA TYPHIMURIUM, Strain/Indicator: TA100, Metabolic Activation: S-9, Method: PREINCUBATION) is “inactive; negative”.

Regarding `CC(C)N(N)C(C)C`, the mutagenic call by setting is: under setting [2], “inactive; negative”; under setting [5], “inactive; negative”; (Test System: AMES SALMONELLA TYPHIMURIUM, Strain/Indicator: TA102, Metabolic Activation: NONE, Method: STANDARD PLATE) “inactive; negative”; (Test System: AMES SALMONELLA TYPHIMURIUM, Strain/Indicator: TA102, Metabolic Activation: RAT, LIVER, S-9, AROCLOR 1254, Method: STANDARD PLATE) “inactive; negative”; under setting [6], “inactive; negative”; under setting [7], “active; positive”.

In the case of `C=C(CC(=O)OCC)C(=O)OCC`, the mutagenic call (Test System: Chinese hamster ovary cells, Metabolic Activation: None, Method: CHO/HGPRT assay) was “inactive; negative”.

For the compound `O=[N+]([O-])c1cccc2c1ccc1ccccc12`, the mutagenic call (Test System: AMES SALMONELLA TYPHIMURIUM, Strain/Indicator: TA98(1,8-DNP6), Metabolic Activation: NONE, Method: STANDARD PLATE) is “active; positive”; the mutagenic call (Test System: AMES SALMONELLA TYPHIMURIUM, Strain/Indicator: TA98(NR), Metabolic Activation: NONE, Method: STANDARD PLATE) is “active; positive”; the mutagenic call under setting [1] is “active; positive”; the mutagenic call under setting [2] was “active; positive”; the mutagenic call (Test System: AMES SALMONELLA TYPHIMURIUM, Strain/Indicator: YG1021, Metabolic Activation: NONE, Method: STANDARD PLATE) was “active; positive”; the mutagenic call (Test System: AMES SALMONELLA TYPHIMURIUM, Strain/Indicator: YG1024, Metabolic Activation: NONE, Method: STANDARD PLATE) is “active; positive”. For the same compound, the mutagenic call was “active; positive” (Test System: AMES SALMONELLA TYPHIMURIUM, Strain/Indicator: YG1026, Metabolic Activation: NONE, Method: STANDARD PLATE) and “active; positive” (Test System: AMES SALMONELLA TYPHIMURIUM, Strain/Indicator: YG1029, Metabolic Activation: NONE, Method: STANDARD PLATE).

Regarding `O=Nc1c(-c2ccc(Cl)cc2)nc2sccn12`, the mutagenic call is “inactive; negative” under setting [1]; “inactive; negative” under setting [2]; “inactive; negative” under setting [6]; “active; positive” under setting [8]; “active; positive” under setting [9].
